Measured values taken from PubChem BioAssay AID1963962 (Molecular Pharmacology Branch, DTP, NCI, 2024).

System: 967376-340-R-J2-PDC multicell spheroid viability
Assay: Anticancer human tumor 967376-340-R-J2-PDC patient-derived colon adenocarcinoma cell line growth inhibition [PI3K]
Details: for IC50: curve of first compound; for viability, T/C: stronger effect = lower value; active = viability on the fitted dose curve at most 10% of control; inactive = the rest
Outline: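 Viability of mixed-cell spheroids was determined after exposure to pairwise combinations, one partner being inavolisib, alpelisib, duvelisib or copanlisib. Highest tested concentration matched clinical Cmax where known and 10 microM where not, descending in half-log steps.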

[1] = second compound 0.0316 µM, first compound 0.0316 µM
[2] = second compound 0.0316 µM, first compound 0.1 µM
[3] = second compound 0.1 µM, first compound 0.0316 µM
[4] = second compound 0.1 µM, first compound 0.1 µM
[5] = second compound 0.316 µM, first compound 0.0316 µM
[6] = second compound 0.316 µM, first compound 0.1 µM
[7] = second compound 1 µM, first compound 0.0316 µM
[8] = second compound 1 µM, first compound 0.1 µM
[9] = second compound 3.16 µM, first compound 0.0316 µM
[10] = second compound 3.16 µM, first compound 0.1 µM
[11] = second compound 10 µM, first compound 0.0316 µM
[12] = second compound 10 µM, first compound 0.1 µM
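Also: spheroids exposed to agents for 7 days before read-out.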
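For viability, T/C in this document: luminescence used as surrogate of cell viability.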

C[C@@H](NC(=O)c1ncnc(N)c1Cl)c1ncc(C(=O)Nc2cc(C(F)(F)F)c(Cl)cn2)s1 + CC(Nc1ncnc2nc[nH]c12)c1cc2cccc(Cl)c2c(=O)n1-c1ccccc1
inactive: viability, T/C [1] 100% | viability, T/C [2] 129% | viability, T/C (second compound 0.0316 µM, first compound 0.316 µM) 109% | viability, T/C (second compound 0.0316 µM, first compound 1 µM) 104% | viability, T/C (second compound 0.0316 µM, first compound 3.16 µM) 101% | viability, T/C (second compound 0.0316 µM, first compound 10 µM) 98.9% | viability, T/C [3] 123% | viability, T/C [4] 112% | viability, T/C (second compound 0.1 µM, first compound 0.316 µM) 90.5% | viability, T/C (second compound 0.1 µM, first compound 1 µM) 102% | viability, T/C (second compound 0.1 µM, first compound 3.16 µM) 110% | viability, T/C (second compound 0.1 µM, first compound 10 µM) 117% | viability, T/C [5] 92.5% | viability, T/C [6] 102% | viability, T/C (second compound 0.316 µM, first compound 0.316 µM) 109% | viability, T/C (second compound 0.316 µM, first compound 1 µM) 107% | viability, T/C (second compound 0.316 µM, first compound 3.16 µM) 96.9% | viability, T/C (second compound 0.316 µM, first compound 10 µM) 110% | viability, T/C [7] 114% | viability, T/C [8] 97.8% | viability, T/C (second compound 1 µM, first compound 0.316 µM) 99.7% | viability, T/C (second compound 1 µM, first compound 1 µM) 90.7% | viability, T/C (second compound 1 µM, first compound 3.16 µM) 127% | viability, T/C (second compound 1 µM, first compound 10 µM) 106% | viability, T/C [9] 95.9% | viability, T/C [10] 92.2% | viability, T/C (second compound 3.16 µM, first compound 0.316 µM) 106% | viability, T/C (second compound 3.16 µM, first compound 1 µM) 92.8% | viability, T/C (second compound 3.16 µM, first compound 3.16 µM) 97.3% | viability, T/C (second compound 3.16 µM, first compound 10 µM) 113% | viability, T/C [11] 79.7% | viability, T/C [12] 97.2% | viability, T/C (second compound 10 µM, first compound 0.316 µM) 106% | viability, T/C (second compound 10 µM, first compound 1 µM) 97.1% | viability, T/C (second compound 10 µM, first compound 3.16 µM) 107% | viability, T/C (second compound 10 µM, first compound 10 µM) 119%
> 10 µM: IC50 (second compound 0.0316 µM) | IC50 (second compound 0.1 µM) | IC50 (second compound 0.316 µM) | IC50 (second compound 1 µM) | IC50 (second compound 3.16 µM) | IC50 (second compound 10 µM)

Cn1ncnc1[C@H]1c2n[nH]c(=O)c3cc(F)cc(c23)N[C@@H]1c1ccc(F)cc1 + CC(Nc1ncnc2nc[nH]c12)c1cc2cccc(Cl)c2c(=O)n1-c1ccccc1
inactive: viability, T/C (second compound 0.0316 µM, first compound 0.000316 µM) 111% | viability, T/C (second compound 0.0316 µM, first compound 0.001 µM) 114% | viability, T/C (second compound 0.0316 µM, first compound 0.00316 µM) 90% | viability, T/C (second compound 0.0316 µM, first compound 0.01 µM) 107% | viability, T/C [1] 84.7% | viability, T/C [2] 86.7% | viability, T/C (second compound 0.1 µM, first compound 0.000316 µM) 103% | viability, T/C (second compound 0.1 µM, first compound 0.001 µM) 94.2% | viability, T/C (second compound 0.1 µM, first compound 0.00316 µM) 102% | viability, T/C (second compound 0.1 µM, first compound 0.01 µM) 109% | viability, T/C [3] 93.4% | viability, T/C [4] 89.5% | viability, T/C (second compound 0.316 µM, first compound 0.000316 µM) 83.5% | viability, T/C (second compound 0.316 µM, first compound 0.001 µM) 96.5% | viability, T/C (second compound 0.316 µM, first compound 0.00316 µM) 78.6% | viability, T/C (second compound 0.316 µM, first compound 0.01 µM) 83.4% | viability, T/C [5] 102% | viability, T/C [6] 79.2% | viability, T/C (second compound 1 µM, first compound 0.000316 µM) 122% | viability, T/C (second compound 1 µM, first compound 0.001 µM) 84.7% | viability, T/C (second compound 1 µM, first compound 0.00316 µM) 87.2% | viability, T/C (second compound 1 µM, first compound 0.01 µM) 91.7% | viability, T/C [7] 108% | viability, T/C [8] 104% | viability, T/C (second compound 3.16 µM, first compound 0.000316 µM) 73.7% | viability, T/C (second compound 3.16 µM, first compound 0.001 µM) 73.8% | viability, T/C (second compound 3.16 µM, first compound 0.00316 µM) 89.6% | viability, T/C (second compound 3.16 µM, first compound 0.01 µM) 71.1% | viability, T/C [9] 83.3% | viability, T/C [10] 87.8% | viability, T/C (second compound 10 µM, first compound 0.000316 µM) 89.5% | viability, T/C (second compound 10 µM, first compound 0.001 µM) 102% | viability, T/C (second compound 10 µM, first compound 0.00316 µM) 81.5% | viability, T/C (second compound 10 µM, first compound 0.01 µM) 76.4% | viability, T/C [11] 78% | viability, T/C [12] 73.5%
> 0.1 µM: IC50 (second compound 0.0316 µM) | IC50 (second compound 0.1 µM) | IC50 (second compound 0.316 µM) | IC50 (second compound 1 µM) | IC50 (second compound 3.16 µM) | IC50 (second compound 10 µM)
